Measured values from patent US12201628B2, “Neuronal modulation” (priority 2013, dated 2025).
“Also recorded” adds a separate entry of the source.

How the values were obtained:
Format in all cases: in vivo, mice
VTA dopaminergic neurons = assay: Conditional place preference (CPP) paradigm; settings: CNO 2.5 mg/kg
Method: All behavioral tests were conducted during the same circadian period. The conditional place preference (CPP) test was performed in a rectangular cage with two chambers (25 cm×25 cm each), with a corridor (5 cm×5 cm) connecting the two chambers. The chambers differed in their visual cues and were designed so that mice will have no bias for a particular chamber. The CPP paradigm consisted of four sessions over four days and was conducted 30 days after the viral stereotactic injection. On day 1, individual mice were placed in the connecting corridor (in the same direction) and allowed to freely explore the entire apparatus for 15 minutes (pre-test). On day 2, mice were IP injected with CNO (2.5 mg/kg, Sigma-Aldrich) diluted in sterile saline in order to activate the VTA dopaminergic neurons and then the mice were confined to one of the chambers for 30 min. On day 3, mice were confined to the other chamber for 30 min, 10 min after an injection of sterile saline. On day 4, mice were placed in the center chamber and allowed to freely explore the entire apparatus for 15 minutes (post-test). To calculate the level of preference, the relative time (%) the mouse spent during post-test in the conditioned chamber (the chamber where it received the CNO injection) was divided by the relative time (%) the mouse spent in this chamber during the pre-test (post/pre ratio). Of note, mice in both groups were injected with CNO to control for the potential effects of CNO. The analysis was performed automatically using EthoVision software.
Behavioral analysis (conditioned place preference; CPP): Three groups of mice were used in this experiment: mice injected with AAV virus encoding the hM3D (Gq), hM4D (Gi) or control carrying only mCherry. On day 1 the mice were given a chance to explore the apparatus for 5 minutes. […] At this stage the mice were only allowed access to one compartment of the apparatus and remains in the compartment for 30 minutes. Day 3: Mice were confounded to the other compartment. […] Time spent in each compartment was measured by motion detecting software (EthoVision). […]

[1] = tested on: solid melanoma (B16) tumor and Lewis lung carcinoma (LLC); assay: Tumor growth after VTA dopaminergic neuron activation
Method: For the expression of DREADDs, injected Cre-dependent adeno-associated virus (AAV) vector expressing DREADDs fused with red fluorescent protein mCherry, was injected into the VTA of tyrosine hydroxylase (TH)-Cre transgenic mice.
Then the mice were challenged with 500×10^3 LLC cells (Lewis Lung carcinoma Cells) or 200×10^3 B16 melanoma tumor cells (gently injected subcutaneously into the middle right flank of each animal).
28 days from the tumor cells injection a group of the tumor-bearing animals were euthanized to dissect the tumor tissue and check for metastasis (FIG. 12). The spleen bone marrow and tumors were isolated to characterize the changes in immune cells. The CyTOF was used to analyze the immune system as well as FACS analysis.

IL-4 and IL-1β = assay: Serum cytokine levels (RayBio antibody array, ELISA); settings: 24 h after CNO; VTA-activated vs control
Method: VTA-activated and control mice were treated with CNO. Twenty four hours later, they were anaesthetized with ketamine/xylazine and their blood was collected by cardiac puncture. The blood was allowed to clot at room temperature for at least 30 minutes. Serum was collected by centrifuging the sample at 400 g for 10 min. The serum samples pooled from each experimental group (VTA-activated group and control group) were analyzed for cytokine and chemokine levels using the RayBio custom G-Series mouse cytokine antibody array kit (RayBiotech; Norcross, GA) according to manufacturer's instructions. The panel included: CD30 ligand, Eotaxin-1, Eotaxin-2, IFN-γ, IL-1α, IL-1β, IL-2, IL-3, IL-4, IL-6, IL-9, IL-10, IL-12 p40/p70, IL-12 p70, IL-13, IL-17A, MIP-1α, MIP-1γ, RANTES and TNFα. Murine IL-4 and IL-1β standard ELISA kits (PeproTech; Rocky Hill, NJ) were used as a quantitative validation of the IL-4 and IL-1β levels measured with the antibody array kit.

SMILES: C[N+]1([O-])CCN(C2=Nc3cc(Cl)ccc3Nc3ccccc32)CC1 [CNO, clozapine-N-oxide]
- preference for conditioned chamber (CPP) (VTA dopaminergic neurons; Gi (hM4D) mice): avoided the conditioned chamber
- preference for conditioned chamber (CPP) (VTA dopaminergic neurons; Gq (hM3D, VTA-activated) mice): exhibited a preference for the conditioned chamber; also recorded: increased preference to the conditioned chamber; also recorded: strong preference towards the chamber in which they were injected with CNO
- preference for conditioned chamber (CPP) (VTA dopaminergic neurons; control mice (mCherry only virus)): no such bias; also recorded: did not show a clear preference to any single chamber
- tumor weight / size (B16 melanoma) ([1]; CNO daily, two sessions of three days, Gq group vs control): Reduced tumor size
- reduction in tumor size ([1]; VTA-activated vs control mice, B16 melanoma and LLC): over 40%
- abundance of CD11b+Gr1+ MDSCs ([1]; VTA-activated vs control mice, spleen, bone marrow and tumor): significant reduction in the abundance; also recorded: reduced abundance of MDSCs
- serum IL-1β level (IL-4 and IL-1β): significantly reduced
- serum IL-4 level (IL-4 and IL-1β): significantly reduced
